assay: Antioxidant activity in soybean large unilamellar vesicles assessed as inhibition of AAPH-induced lipid peroxidation compound added prior to AAPH induction measured after 90 mins by UV-visible absorption spectrometric analysis; assay type: physicochemical

**Q.** For `CCCCCCCC/C=C/CCCCCCCc1c(C)c(O)cc2c1[nH]c1ccccc12`, which IC50 is on record?
**A.** 160 nM

**Q.** Which IC50 does the source give for VITAMIN E here?
**A.** 800 nM

**Q.** Which IC50 does the source give for `Cc1cc2[nH]c3ccccc3c2cc1O` here?
**A.** 1000 nM

**Q.** With `O=c1c(O)c(-c2ccc(O)c(O)c2)oc2cc(O)cc(O)c12` [QUERCETIN] as the compound, how does the IC50 read?
**A.** 200 nM

Source: ChEMBL document CHEMBL3593180, “Lipocarbazole, an efficient lipid peroxidation inhibitor anchored in the membrane” (Bioorg Med Chem, 2015)
